One series addresses T1, pseudocholinesterase (Homo sapiens, UniProt P06276).
T1 construct: hydrolyzed at the ester linkage in plasma by pseudocholinesterase; host or cells: plasma
Particulars: plasma; cited from earlier work.

Series [1] has as its system wild type, α2AAR knockout and α2CAR knock out mice. Briefly: Paw withdrawal in response to strong pinch after subcutaneous plantar injection. The series is classed as in vivo. Particulars: 5 mM subcutaneously in right plantar paw. The procedure: Studies testing the effect of Atip were also conducted in α2 receptor subunit knock-out mice. α2AAR knockout and α2CAR knock out mice were used in the study. Animals were injected with 5 mM Atip subcutaneously in their right plantar paw, and vehicle into the left plantar paw. They then received strong pinch to the paw skin and pads on each foot. Right and left paw withdrawal in response to the pinch was assessed.

Another series concerns hTCEpi cells. Nature of the series: Cytotoxicity, Alamar Blue cell viability assay. The series is classed as cell-based, human. Particulars: 24 or 48 hours incubation. Here is the method: Cytotoxicity studies were performed using Human telomerase-immortalized human corneal epithelial cells (hTCEpi cells—obtained through Genon Corp., Menlo Park, CA, USA). The cells were plated at a density of 30,000 cells per well of a 96-well dish in growth media (Defined Keratinocyte Media with growth supplement, Invitrogen, Grand Island, NY, USA). After 24 hours of recovery, cells were treated with either growth media alone or growth media supplemented with 0.5% DMSO (vehicle), the indicated concentration of ATIP, or 0.5% proparacaine (Akorn, Forest Lake, IL). Cells were incubated for 24 or 48 hours at 37° C. in 5% CO2. Cell viability was assessed using an Alamar Blue Assay (Thermo Fisher, Waltham, MA, USA).
With reference to FIGS. 5A and 5B, data are plotted as the fraction of viable cells compared to growth media alone+/−S.E.M (n=3).
In general terms: Alamar Blue is a resazurin reagent that responds to reducing activity.

In series [2] the test system is injury-sensitized dissociated rat sensory neurons. Briefly: Patch-clamp electrophysiology, action potentials induced by depolarizing current. In kind it is cell-based. Here is the method:
Studies were conducted to examine the effect of Atip administration on action potentials induced by depolarizing current. Electrophysiology in injury-sensitized dissociated rat sensory neurons was recorded with patch-clamp, using methods previously described (5).
On the technique in general: In patch-clamp work, channel activity is measured electrically.

Series [3] concerns sensory axons (Dorsal Root). Nature of the series: Compound action potential (CAP) conduction block, sensory CAP recorded at dorsal root, drug applied to lumbar plexus exposure. In kind it is in vivo, rats. An excerpt: (§1) A surgical preparation was used to determine whether Atip acts differently on sensory or motor neurons. The procedures used were similar to those described in Petruska et al., 1998 (Experimental Brain Research 121:379-390). Briefly, adult rats received general anesthesia with ketamine/xylazine. The jugular vein, carotid artery, and trachea were intubated for the purposes of administering supplementary anesthesia, monitoring of blood pressure, and measuring end-expired CO2, respectively. Normal body temperature was maintained within 1° C. via a water-based thermal blanket. […]
(§2) Compound action potentials (CAPs) were generated by stimulating the sciatic nerve branches. The CAPs propagated centrally through the lumbar plexus to the dorsal and ventral roots where the sensory and motor CAPs (sCAP and mCAP) were detected with the recording electrodes. Effectiveness of conduction block was assessed by measuring the properties of the CAPs (peak and area) conducted through the lumbar plexus exposure and treated with drug compared to the CAPs in the control condition (vehicle or saline in the lumbar plexus exposure).
(§3) With reference to FIG. 2B, activity in response to electrical stimulation of the peroneal nerve was recorded from sensory and motor fascicles (20-30 sweeps averaged per time point). […]

The subject of series [4] is motor axons (Ventral Root). Nature of the series: Compound action potential (CAP) conduction block, motor CAP recorded at ventral root, drug applied to lumbar plexus exposure. The conditions noted are these: Atip applied to the nerve; FIGS. 2A-3B together. In kind it is in vivo, rats.
Source text: as §1, §2, §3

In series [5] the test system is isolated human DRG Neurons. Nature of the series: Live cell calcium imaging with electric field stimulation. In kind it is cell-based. Here is the method: Live cell calcium imaging studies were conducted on isolated human DRG Neurons from post mortem donors. Cells were loaded with 3 uM Fluo 8-AM (AAT Bioquest 21081) containing 0.1% Pluronic F-127 (Sigma P2443) for 20 min. The extracellular solution contained in mM (Sigma): 145 NaCl (S3014), 3 KCl (P3911), 2 CaCl2) (C3881), 1 MgCl2 (M9272), 10 HEPES (H3375), 10 glucose (G5767) adjusted to pH 7.4 with NaOH (72068). Fluo-8-loaded cells were excited at 480 nm and emission was collected at 520 nm with a pcoEDGE sCMOS camera (PCO) mounted on an inverted microscope (Olympus IX71).
For Electric Field stimulation (EFs), images were acquired at 100 Hz for 2.5 sec applying simultaneously a train of 10 pulses (5 Hz, 10 ms). After the recording of the baseline profile at Low (1.5 to 2.0 V) and High (2.5 to 3.0 V) Voltage, a pre incubation of […] of the inhibitor is applied to the well before repeating the EFs procedure (Atip 100 uM, Atip 300 uM, Lidocaine 200 uM (Sigma L7757)). The cells that had less than 50% of the pulse response vs the baseline condition was considered inhibited. A washout of 10 min by perfusion was performed after the last EFs procedure.
Lidocaine was first prepared in stock solution using Ethanol (Sigma 459844), Atip was prepared in stock solution using DMSO (Sigma D8418). Image acquisition and data analysis were performed using MetaMorph software (Molecular Devices).
Neurons with less than 50% of the baseline response to electrical field stimulation were considered inhibited. 300 uM Atip blocked activity in 100% of the cells; 100 uM Atip achieved a 62% blockade.

The next series concerns sensory axons. Nature of the series: Sensory CAP recordings with IV-administered Atip after Dex. The series is classed as in vivo, rats. The conditions noted are these: doses indicated for use as α-2 AR antagonist.
The test system of the next series is small sensory axons. Nature of the series: Nociceptive cutaneous trunk muscle reflex (CTMR) EMG on electrical stimulation of a treated sensory nerve. In kind it is in vivo, rats. The conditions noted are these: sensory nerve treated with Atip 20 ul, 200 uM. The procedure:
To address this, a different model system was used the cutaneous trunk muscle reflex (CTMR), which was previously developed and validated for use in anesthesiology and pain experimentation (4,5).
With reference to FIG. 3B, the effects of Atip on nociceptor sensory conduction are assessed using nociceptive CTM reflex as readout.
The CTMR in rats appears as a puckering or flicking of the back skin and is elicited only by noxious natural stimulation or by electrical stimulation of sufficient strength to recruit A-delta and C-fibers (4,6,7). Activation of only very few of these sensory axons is sufficient to elicit a CTMR, making the system a “natural amplifier” for small-diameter afferent input and resulting in reflex output detectible at the EMG and behavioral level (4,8).

T1 sequence (P06276 29-602): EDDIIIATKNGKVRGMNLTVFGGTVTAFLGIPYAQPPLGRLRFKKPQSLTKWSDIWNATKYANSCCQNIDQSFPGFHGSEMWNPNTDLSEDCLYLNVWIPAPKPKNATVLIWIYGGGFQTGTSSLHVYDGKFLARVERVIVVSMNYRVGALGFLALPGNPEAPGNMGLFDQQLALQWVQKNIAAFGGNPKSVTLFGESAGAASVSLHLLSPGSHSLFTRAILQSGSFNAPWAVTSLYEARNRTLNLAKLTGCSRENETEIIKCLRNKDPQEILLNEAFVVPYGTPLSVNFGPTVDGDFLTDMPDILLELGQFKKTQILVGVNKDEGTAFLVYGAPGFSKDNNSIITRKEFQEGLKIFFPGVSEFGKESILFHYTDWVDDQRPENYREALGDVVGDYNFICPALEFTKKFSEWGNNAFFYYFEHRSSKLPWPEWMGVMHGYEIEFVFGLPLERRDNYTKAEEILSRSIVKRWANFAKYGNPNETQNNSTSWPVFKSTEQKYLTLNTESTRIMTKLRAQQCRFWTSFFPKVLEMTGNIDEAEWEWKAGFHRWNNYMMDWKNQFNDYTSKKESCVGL

On to `CCN(CC)CCOC(=O)c1ccc(N)cc1Cl` [2-chloroprocaine], for which the “rate of hydrolysis at the ester linkage, relative” value on pseudocholinesterase is recorded as “about four times faster than procaine”.

Regarding `CCC1(c2cnc[nH]2)Cc2ccccc2C1` [Atip, 4(5)-(2,3-dihydro-2-ethyl-1H-inden-2-yl)imidazole], the “withdrawal of the Atip-injected right paw on pinch” value in [1] (wild type mice), in series [1] (α2AAR knockout mice) and in series [1] (α2CAR knock out mice) was “no withdrawal of the right paw” each time. For the same compound, in the series with hTCEpi cells, the “toxicity (fraction of viable cells compared to growth media alone) versus 0.5% proparacaine” value was “reduced toxicity”. The “action potentials induced by depolarizing current” value in [2] is listed as “rapidly blocked”. Besides, in [2], the resting membrane potential entry is on record as “does not alter the resting membrane potential”. The “reversibility of conduction block (CAP peak and area)” value in [3] (100 ul Atip undiluted clinical dose 5 mg/ml topically over the nerve, then wash-out) is on record as “reversible”. Also, the “conduction in large and small sensory axons” value in [3] (Atip applied to the nerve, FIGS. 2A-3B together) was “strongly blocks conduction”. The “conduction in motor axons” value in series [4] was “relative sparing of conduction”. Besides, the “cells with blocked activity (less than 50% of baseline response to electrical field stimulation)” value turned out to be 62% in series [5] (100 uM) and 100% in series [5] (300 uM). Further, in the series on sensory axons, the “sensory conduction block by IV-administered Atip” value is listed as “does not itself block conduction”. Further, in the series on small sensory axons, the “EMG of CTMR, nociceptor sensory conduction” value was “blocks activity in small sensory axons”. The “nerve toxicity (return of EMG)” value with small sensory axons (not washed out) is “does not poison the nerve”.

On to `CCN(CC)CC(=O)Nc1c(C)cccc1C` [lidocaine, Lidocaine], for which the “efficacy of blockade compared with Atip” value in series [5] (200 uM, therapeutic concentration) is “less efficacious than the highest tested concentration of Atip, and similar to the lowest concentration of Atip tested”.

On to `CCN(CC)CCOC(=O)c1ccc(N)cc1` [procaine], for which the “rate of hydrolysis at the ester linkage, relative” value at pseudocholinesterase was “about four times faster than tetracaine”.

The record behind these values is patent US12414937B2, “Local and regional anesthesia and analgesia” (UNIVERSITY OF LOUISVILLE RESEARCH FOUNDATION, INC., priority 2015, dated 2025).
